This is an account of results in US4902617A, “Enzyme and process for producing the same” (Hoffmann-La Roche Inc., priority 1986, dated 1990).

Test [1] has as its target T1, L-sorbosone dehydrogenase, purified from cytosol fraction of Gluconobacter oxydans UV-10 (FERM BP-1267) (Gluconobacter oxydans, UniProt Q47943).
T1 sequence (Q47943 1-498): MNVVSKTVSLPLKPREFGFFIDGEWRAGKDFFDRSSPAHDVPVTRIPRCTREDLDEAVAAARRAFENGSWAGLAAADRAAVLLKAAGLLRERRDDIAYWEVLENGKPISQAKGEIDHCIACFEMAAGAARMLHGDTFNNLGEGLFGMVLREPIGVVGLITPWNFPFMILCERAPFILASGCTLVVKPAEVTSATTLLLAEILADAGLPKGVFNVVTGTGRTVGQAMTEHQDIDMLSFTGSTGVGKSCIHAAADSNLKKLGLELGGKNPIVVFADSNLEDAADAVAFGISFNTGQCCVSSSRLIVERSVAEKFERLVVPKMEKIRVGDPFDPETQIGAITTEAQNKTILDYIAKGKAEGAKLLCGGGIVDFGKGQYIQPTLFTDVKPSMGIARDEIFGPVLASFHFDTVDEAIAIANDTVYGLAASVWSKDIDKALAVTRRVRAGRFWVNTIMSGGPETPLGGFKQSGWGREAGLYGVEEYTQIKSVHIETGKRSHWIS

The target in test [2] is T1, L-sorbosone dehydrogenase, purified from cytosol fraction of Gluconobacter oxydans UV-10 (FERM BP-1267). The test is described as follows: biochemical. The conditions noted are these: pH 7, read-out: Relative Activity (%) in presence of substance.

On to `CCN1C(=O)C=CC1=O` [N--Ethylmaleimide, N-Ethylmaleimide], for which the “Effect on enzyme activity (in words)” value in test [1] (summary of Table 8) was “inhibited the enzyme activity strongly”. For the same molecule, the activity at 1000 µM in test [2] was 0%.

In the case of `O=C(O)CI` [ICH2 COONa], in test [2], the activity at 5000 µM is 57.7%.

For the molecule `[N-]=[N+]=[N-].[Na+]` [NaN3], the “Relative Activity (%) in presence of substance” value in test [1] (substance conc. 5 mM, None = 100, pH 7.0, 30° C.) is recorded as 100%.

On to `O[C@H](CS)[C@H](O)CS` (racemic) [Dithiothreitol], for which, in test [2], the activity at 5000 µM was determined as 119%.
